Assay results reported in patent US9839614B2, “Nanoparticle and polymer formulations for thyroid hormone analogs, antagonists, and formulations and uses thereof” (NANOPHARMACEUTICALS LLC, priority 2009, dated 2017).
Several values for one entry are separate records, joined by “and”; a condition that tells them apart may be missing. Identical values can stand only once.

Key:
[1] = system: chick chorioallantoic membrane (CAM) blood vessel branching; assay: Chorioallantoic membrane (CAM) model of angiogenesis; format: in vivo; details: for ANGIOGENESIS INDEX: n = 8 per group; for effect on angiogenesis, representative illustrations (FIG. 23): in vivo
Description: In vivo neovascularization was examined by methods described previously. 9-12 Ten-day-old chick embryos were purchased from SPAFAS (Preston, Conn.) and incubated at 37° C. with 55% relative humidity. A hypodermic needle was used to make a small hole in the shell concealing the air sac, and a second hole was made on the broad side of the egg, directly over an avascular portion of the embryonic membrane that was identified by candling. A false air sac was created beneath the second hole by the application of negative pressure at the first hole, causing the CAM to separate from the shell. A window approximately 1.0 cm^2 was cut in the shell over the dropped CAM with a small-crafts grinding wheel (Dremel, division of Emerson Electric Co.), allowing direct access to the underlying CAM. […] Sterile disks of No. 1 filter paper (Whatman International) were pretreated with 3 mg/mL cortisone acetate and 1 mmol/L PTU and air dried under sterile conditions. Thyroid hormone, hormone analogs, FGF2 or control solvents, and inhibitors were then applied to the disks and the disks allowed to dry. The disks were then suspended in PBS and placed on growing CAMs. […] At 24 hours, the MAPK cascade inhibitor PD 98059 was also added to CAMs topically by means of the filter disks.
After incubation at 37° C. with 55% relative humidity for 3 days, the CAM tissue directly beneath each filter disk was resected from control and treated CAM samples. Tissues were washed 3× with PBS, placed in 35-mm Petri dishes (Nalge Nunc), and examined under an SV6 stereomicroscope (Zeiss) at X50 magnification. Digital images of CAM sections exposed to filters were collected using a 3-charge-coupled device color video camera system (Toshiba) and analyzed with Image-Pro software (Media Cybernetics). The number of vessel branch points contained in a circular region equal to the area of each filter disk were counted. One image was counted in each CAM preparation, and findings from 8 to 10 CAM preparations were analyzed for each treatment condition (thyroid hormone or analogs, FGF2, FGF2 antibody, PD 98059). In addition, each experiment was performed 3 times. The resulting angiogenesis index is the mean±SEM of new branch points.

[2] = system: matrigel plug angiogenesis; assay: Mouse matrigel model of angiogenesis (plug hemoglobin); format: in vivo, mice (C57BL/6NCr)
Description: Normal male mice (C57BL/6NCr) 6-8 weeks of age and weighing ˜20 g were purchased from Taconic farm. Animals were housed 4 per cage, in controlled conditions of temperature (20-24° C.); humidity (60-70%) and 12 hrs. light/dark cycle provided with food and water ad libitum. […] Aliquots of matrigel were placed into cold polypropylene tubes to prevent the matrigel from solidifying and the angiogenesis promoter added to matrigel with or without agonist. Mice were treated daily. Matrigel was subcutaneously injected as triple injection per animal at 100 μL/animal. At day 14 post plug implant all animals were killed in CO2 chamber and matrigel plugs were collected. Plug hemoglobin content was analyzed from three implants/mice (n=6 per group) to measure angiogenesis.
The matrigel plugs dissected from the mice were carefully stripped of any remaining peritoneum. The plugs were placed into 0.5 mL tube of ddH2O and homogenized for 5-10 min. […] Absorbance was read with a Microplate Manager ELISA reader at 540 nm. […] Hemoglobin concentration is a reflection of the number of blood vessels in the plugs.

ECV304 endothelial cells = assay: FGF2 release from ECV304 endothelial cells (ELISA); format: cell-based; details: T3 0.01 μmol/L, 3 days
Description: ECV304 endothelial cells were cultured in M199 medium supplemented with 10% fetal bovine serum. […] After 72 hours, the supernatants were harvested and assays for FGF performed without dilution using a commercial ELISA system (R&D Systems) (See Davis et al., Circ Res 94:1500-1506 (2004)).

[3] = FGF (1.25 μg/ml) + Tetrac or analog at 10 μg/plug
[4] = FGF (1.25 μg/ml) + Tetrac or analog at 10 μg/plug, n = 8
[5] = FGF 100 ng + Tetrac or analog 10 μg/plug
[6] = FGF 100 ng + Tetrac or analog 10 μg/plug, n = 7-14
[7] = T4 + antagonist, each 10 μg/matrigel plug
[8] = 10 μg/matrigel plug, day 14, n = 6-7

In the case of `Cc1cc(OCC(=O)O)cc(C)c1Cc1ccc(O)c(C(C)C)c1` [GC-1, 3,5-dimethyl-4-(4′-hydroxy-3′-isopropylbenzyl)-phenoxy acetic acid], the “ANGIOGENESIS INDEX” value ([1]; 0.01 uM) is reported as 169.6 ± 11.6 and the “ANGIOGENESIS INDEX” value ([1]; 0.1 uM) is reported as 152.7 ± 9.0.

For “FGF2: human recombinant FGF2, standard proangiogenic agent”, the “ANGIOGENESIS INDEX” value ([1]; 1 uM) was 155 ± 9, the “Branch pts ± SEM” value ([1]; 1.25 μg/ml) was 137.9 ± 7.5 and the “Mean % of stimulation (comparing to PBS)” value ([1]; FGF 1.25 μg/mL) was 78.1 ± 7.5%. The “Mean Branch points” value ([1]; FGF 1.25 μg/mL) was 130 ± 11, the “increase in angiogenesis / branch formation” value ([1]; FGF2 (1 μg/mL)) was 2.2 fold and 2 fold and the “Mean Branch points” value ([1]; FGF (1.25 μg/ml) alone) was 130 ± 11. The “Hemoglobin (mg/mL) ± SEM” value ([2]; FGF 100 ng alone) was 2.4 ± 0.4 mg/mL.

In the case of `CCNC(Cc1cc(I)c(Oc2cc(I)c(O)c(I)c2)c(I)c1)C(=O)O` (centres unmarked) [PRIAB12], the “Branch pts ± SEM” value ([1]; 0.1 μM) is reported as 121.7 ± 13.6.

In the case of `CC(C)(C)OC(=O)NC(Cc1cc(I)c(Oc2cc(I)c(O)c(I)c2)c(I)c1)C(=O)O` (centres unmarked) [T4 analog 7, 2-[(Tert-butoxycarbonyl)amino]-3-[4-(4-hydroxy-3,5-diiodophenoxy)-3,5-diiodophenyl]propanoic acid], the “Branch pts ± SEM” value ([1]; 0.1 μM, before conjugation) is reported as 173 ± 9.9.

For `O=C(Cc1cc(I)c(Oc2cc(I)c(O)c(I)c2)c(I)c1)NC1CCCCC1` [Tetrac analog 4, N-cyclohexyl-2-(4-(4-hydroxy-3,5-diiodophenoxy)-3,5-diiodophenyl)acetamide], the “Mean % Inhibition” value [1, 3] was 15 ± 8%, the “Mean Branch points” value [1, 4] was 121 ± 4 and the “Mean inhibition of angiogenesis (%)” value [2, 5] was 104 ± 12%. For the same molecule, the “Hemoglobin (mg/mL) ± SEM” value [2, 6] was 0.2 ± 0.1 mg/mL.

`CC(C)[Si](OC(=O)Cc1cc(I)c(Oc2cc(I)c(OCC3CO3)c(I)c2)c(I)c1)(C(C)C)C(C)C` (centres unmarked) showed a melting point of 120 °C.

For `O=C(Cc1cc(I)c(Oc2cc(I)c(OCC3CO3)c(I)c2)c(I)c1)NC1CCCCC1` (centres unmarked) [Tetrac analog 6, N-cyclohexyl-2-(4-(3,5-diiodo-4-(oxiran-2-ylmethoxy)phenoxy)-3,5-diiodophenyl)acetamide], the “Mean inhibition of angiogenesis (%)” value [2, 5] was 80 ± 16%, the “Hemoglobin (mg/mL) ± SEM” value [2, 6] was 0.7 ± 0.1 mg/mL and the melting point was 242 °C.

With `N[C@@H](Cc1cc(I)c(Oc2ccc(O)c(I)c2)c(I)c1)C(=O)O` [Compound T3, 3,5,3′-triiodo-L-thyronine] the “generation of new blood vessels from existing vessels promoted” value ([1]; 10^−7-10^−9M) was “two-to three-fold” and the “FGF2 (pg/mL/10^6 cells)” value (ECV304 endothelial cells) was 98.8 ± 0.5 pg/mL/10^6 cells.

For `CC(C)[Si](OC(=O)Cc1cc(I)c(Oc2cc(I)c(O)c(I)c2)c(I)c1)(C(C)C)C(C)C` [Tetrac analog 5, Triisopropylsilyl-2-(4-(4-hydroxy-3,5-diiodophenoxy)-3,5-diiodophenyl)acetate], the “Mean % Inhibition” value [1, 3] was 75 ± 19%, the “Mean Branch points” value [1, 4] was 87 ± 11 and the “Mean inhibition of angiogenesis (%)” value [2, 5] was 104 ± 14%. For the same molecule, the “Hemoglobin (mg/mL) ± SEM” value [2, 6] was 0.2 ± 0.1 mg/mL and the melting point was 146 °C.

`CC(C)[Si](OC(=O)C(Cc1cc(I)c(Oc2cc(I)c(OCC3CO3)c(I)c2)c(I)c1)NC(=O)OC(C)(C)C)(C(C)C)C(C)C` (centres unmarked) (hydrate or solvate) showed a melting point of 109 °C.

`CC(C)(C)OC(=O)NC(Cc1cc(I)c(Oc2cc(I)c(OCC3CO3)c(I)c2)c(I)c1)C(=O)OCC1CO1` (centres unmarked) (hydrate or solvate) [T4 analog 14, Oxiran-2-ylmethyl-2-(tert-butoxycarbonylamino)-3-(4-(3,5-diiodo-4-(oxiran-2-ylmethoxy)phenoxy)-3,5-diiodophenyl)propanoate] gave a melting point of 105 °C.

With `O=C(O)CCc1cc(I)c(Oc2ccc(O)cc2)c(I)c1` [DITPA, 3,5-diiodothyropropionic acid] the “ANGIOGENESIS INDEX” value ([1]; 0.01 uM) was 133.0 ± 11.6, the “ANGIOGENESIS INDEX” value ([1]; 0.1 uM) was 167.3 ± 12.7 and the “ANGIOGENESIS INDEX” value ([1]; 0.2 mM) was 117.9 ± 5.6.

With `O=C(O)C(Cc1cc(I)c(Oc2cc(I)c(O)c(I)c2)c(I)c1)NC(c1ccccc1)(c1ccccc1)c1ccccc1` (centres unmarked) [PRIAB2] the “Branch pts ± SEM” value ([1]; 0.1 μM) was 136.0 ± 18.1.

Molecule `O=C(Cc1cc(I)c(Oc2cc(I)c(OCC3CO3)c(I)c2)c(I)c1)OCC1CO1` (centres unmarked) [Tetrac analog 8, Oxiran-2-ylmethyl-2-(4-(3,5-diiodo-4-(oxiran-2-ylmethoxy)phenoxy)-3,5-diiodophenyl)acetate] has a melting point of 116 °C.

In the case of `CC(C)(C)OC(=O)Cc1cc(I)c(Oc2cc(I)c(O)c(I)c2)c(I)c1` [Tetrac analog 3, tert-Butyl-2-(4-(4-hydroxy-3,5-diiodophenoxy)-3,5-diiodophenyl)acetate], the “Mean inhibition of angiogenesis (%)” value [2, 5] is reported as 95 ± 14%.

In the case of `CCNC(Cc1cc(I)c(Oc2cc(I)c(O)c(I)c2)c(I)c1)C(=O)OCC` (centres unmarked) [T4 analog 12, Ethyl-2-(ethylamino)-3-[4-(4-hydroxy-3,5-diiodophenoxy)-3,5-diiodophenyl]propanoate], the “Mean Branch points” value ([1]; FGF (1.25 μg/ml) + 12 (0.1 μM)) is reported as 46 ± 2, the “Mean % of stimulation (comparing to PBS)” value ([1]; FGF (1.25 μg/ml) + 12 (0.1 μM), (inhibition)) is reported as −37.9 ± 4 (inhibition) % and the “effect on angiogenesis, representative illustrations (FIG. 23)” value [1] is reported as “anti-angiogenic”. For the same molecule, the “Hemoglobin (mg/mL) ± SEM” value [2, 7] was 0.4 ± 0.1 mg/mL and the “Mean inhibition of angiogenesis (%)” value [2, 7] was 89 ± 11%.

For `CCNC(Cc1cc(I)c(Oc2cc(I)c(O)c(I)c2)c(I)c1)C(=O)O` (centres unmarked) [T4 analog 11, 2-(Ethylamino)-3-[4-(4-hydroxy-3,5-diiodophenoxy)-3,5-diiodophenyl]propanoic acid], the “effect on angiogenesis, representative illustrations (FIG. 23)” value [1] was “proangiogenesis effects”.

For `CC(C)[Si](OC(=O)C(Cc1cc(I)c(Oc2cc(I)c(O)c(I)c2)c(I)c1)NC(=O)OC(C)(C)C)(C(C)C)C(C)C` (centres unmarked) [T4 analog 13, Triisopropylsilyl-2-(tert-butoxycarbonylamino)-3-(4-(4-hydroxy-3,5-diiodophenoxy)-3,5-diiodophenyl)propanoate], the “Mean Branch points” value ([1]; 1 μM, mean ± SEM, n = 8) was 76 ± 7, the “Mean % Inhibition” value [1, 3] was 44 ± 13% and the “Mean Branch points” value [1, 4] was 105 ± 7. For the same molecule, the change in vivo at 1 µM ([1]; Gallus gallus, topical, 1 μM, read-out: Mean % of stimulation (comparing to PBS)) was 4.1 ± 6.5%, the “Mean stimulation of angiogenesis (%)” value ([2]; 10 μg/matrigel plug) was 0 ± 17% and the “Hemoglobin (mg/mL) ± SEM” value [2, 8] was 0.3 ± 0.1 mg/mL.

For `CC(C)(C)OC(=O)NC(Cc1cc(I)c(Oc2cc(I)c(OCC3CO3)c(I)c2)c(I)c1)C(=O)OCC1CO1` (centres unmarked) [T4 analog 14, Oxiran-2-ylmethyl-2-(tert-butoxycarbonylamino)-3-(4-(3,5-diiodo-4-(oxiran-2-ylmethoxy)phenoxy)-3,5-diiodophenyl)propanoate], the “Mean % of stimulation (comparing to PBS)” value ([1]; 1 μM) was 56.2 ± 7.5%, the “Mean Branch points” value ([1]; 1 μM, mean ± SEM, n = 8) was 114 ± 11 and the “Mean stimulation of angiogenesis (%)” value ([2]; 10 μg/matrigel plug) was 0 ± 17%. The “Hemoglobin (mg/mL) ± SEM” value [2, 8] was 0.3 ± 0.1 mg/mL.

In the case of `CNC(Cc1cc(I)c(Oc2cc(I)c(O)c(I)c2)c(I)c1)C(=O)[O-].O.O.[K+]` (centres unmarked) [T4 analog 10, Potassium 3-[4-(4-hydroxy-3,5-diiodophenoxy)-3,5-diiodophenyl]-2-(methylamino)propanoate dihydrate], the “Mean % of stimulation (comparing to PBS)” value ([1]; 0.1 μM) is reported as 43.8 ± 6.5%, the “Mean Branch points” value ([1]; 0.1 μM, mean ± SEM, n = 8) is reported as 105 ± 7 and the “Hemoglobin (mg/mL) ± SEM” value [2, 8] is reported as 0.8 ± 0.2 mg/mL. For the same molecule, the “Mean stimulation of angiogenesis (%)” value ([2]; 10 μg/matrigel plug, dihydrate) was 87% and 87 ± 33%.

For `O=C(Cc1cc(I)c(Oc2cc(I)c(OCCCl)c(I)c2)c(I)c1)NC1CCCCC1` [Tetrac analog 15, 2-(4-(4-(2-chloroethoxy)-3,5-diiodophenoxy)-3,5-diiodophenyl)-N-cyclohexylacetamide], the melting point was 263 °C.

For `CNC(Cc1cc(I)c(Oc2cc(I)c(O)c(I)c2)c(I)c1)C(=O)O` (centres unmarked) [PRIAB6], the “Branch pts ± SEM” value ([1]; 0.1 μM) was 136.2 ± 12.4.
